One experiment deals with T1, TRB3 (Homo sapiens, UniProt Q96RU7).
T1 sequence (Q96RU7 1-358): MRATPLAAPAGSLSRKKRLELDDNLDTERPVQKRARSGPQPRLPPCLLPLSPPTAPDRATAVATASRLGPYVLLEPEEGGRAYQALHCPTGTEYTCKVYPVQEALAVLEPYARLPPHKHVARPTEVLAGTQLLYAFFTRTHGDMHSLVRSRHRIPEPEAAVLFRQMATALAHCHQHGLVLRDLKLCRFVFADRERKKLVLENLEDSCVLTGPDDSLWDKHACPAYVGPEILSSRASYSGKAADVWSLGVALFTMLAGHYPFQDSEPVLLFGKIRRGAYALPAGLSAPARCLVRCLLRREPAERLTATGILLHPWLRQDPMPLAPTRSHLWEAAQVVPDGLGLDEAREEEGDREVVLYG
The experiment can be described thus: Surface plasmon resonance binding of peptides to immobilized TRB3. As for the experimental part:
Binding kinetics between TRB3 and control, P2, P4, P6, P7, P8, P9, P11, A1, A2 or A3 were measured by a surface plasmon resonance assay using BIAcore T200 instrument (GE Healthcare, Pittsburgh, USA)[53]. The dissociation constant (KD) was calculated according to the BIA-evaluation software.
In general terms: SPR reads the build-up and loss of mass on a sensor chip optically.

A further experiment deals with p62. The experiment can be described thus: Cycloheximide chase of p62 degradation in HepG2 cells. Format: cell-based, human. The conditions noted are these: CHX 10 μg ml^−1 after insulin/IGF-1 stimulation, 8.5 h without stimulation, three independent assays, Fig. 4b. As for the experimental part:
Figure 4 TRB3 mediates insulin/IGF-induced p62 accumulation. (a) HepG2 cells were treated with indicated stimulators for 12 h. The mRNAs were determined with RT–PCR using specific primer sets. Data are means±s.e.m of three independent assays. (b) HepG2 cells were incubated with cycloheximide (CHX) (10 μg ml^−1) for indicated time points after insulin/IGF-1 stimulation. Indicated proteins were detected with immunoblotting. Data are means±s.e.m of three independent assays. (c) Control or TRB3-silenced cells were incubated with CHX (10 μg ml^−1) for indicated time points after IGF-1 stimulation. Cell lysates were isolated for immunoblotting. Data are means±s.e.m of three independent assays. (d) HepG2 cells expressing p62- or control-siRNA were co-transfected with Ub^G76V-GFP. The cells were treated with IGF-1 for 12 h. The cell lysates were isolated for immunoblotting. Data are representative of immunoblots of three independent assays. (e) Cells expressing control-shRNA or TRB3-shRNAs were transfected with Ub^G76V-GFP plasmid plus or minus with p62-DDK-expressing plasmid. The lysates were isolated for immunoblotting. […] After 24 h, the cells were treated with IGF-1 for 12 h, and the flux rate of autophagy was detected with Live Cell Imaging Microscopy. […] Indicated proteins were evaluated with immunoblotting. […] Statistical significance was determined with Student's t-test; *P<0.05. […]

In experiment [1] the test system is TRB3-silenced HepG2 cells. As to the kind of experiment: Protein turnover assay in TRB3-silenced HepG2 cells with degradation inhibitors. Format: cell-based, human. The conditions noted are these: inhibitor 12 h, immunoblot, Fig. 3f. As for the experimental part:
Figure 3 Enhanced TRB3 compromises selective autophagy and clearance of UPS. (a) BEAS-2B cells were infected with TRB3-Myc-adenovirus expressing Myc-Tagged TRB3 with an independently expressing GFP. GFP-adenovirus was used as control. Indicated molecules were detected by immunoblotting. Data are representatives of four independent assays. (b) TRB3-silenced cells were treated with IGF-1 (100 nM) for 12 h and indicated proteins were detected by immunoblotting. Data are representatives of four independent assays. (c) Control or TRB3-silenced HepG2 cells were infected with adenovirus with mRFP-GFP-LC3-PE. After 24 h, the cells were treated with IGF-1 (100 nM) for 12 h and the flux rate of autophagy was detected with Live Cell Imaging Microscopy. Data are schematic drawing of the autophagy process (upper) and microscopy images showing red-coloured autophagolysosomes or red/green double-coloured autophagosomes (lower). Scale bar, 10 μm. See also Supplementary Movies 1–6. (d) Silencing TRB3 increased the number of autophagosomes (Avi) and autolysosomes (Avd) in HepG2 cells treated with or without IGF-1 (100 nM). Data are representative images of TEMs of three independent assays. Single arrows denote Avi; double arrows indicate Avd. Scale bar, 500 nm. The ratio of autophagic vacuole area to the cytoplasmic area was determined by morphometric analysis. Data are means±s.e.m. (e) TRB3-silenced cells were treated with IGF-1 (100 nM) for 12 h. Expression of indicated proteins was detected by immunoblotting. Data are representatives of four independent assays. (f) TRB3-silenced HepG2 cells were treated with bafilomycin (left) or MG132 (right) for 12 h. Indicated proteins were detected by immunoblotting. […] The cells were treated with or without IGF-1 for 12 h and the expression of Ub^G76V-GFP was immunoblotted with anti-GFP antibody (Ab; left) or detected with flow cytometry (right). […] The proliferative and invasive capacities of cells were evaluated with Edu (h) and transwell assays (i). Statistical significance was determined with one-way analysis of variance (ANOVA); *P<0.05; **P<0.01; ***P<0.001. […]
(In general: In western blotting, separated proteins are transferred to a membrane and probed.)

The next experiment relates to B16-F10 cells. The experiment can be described thus: B16-F10 tumour growth and metastasis in TRB3 knockdown KK-Ay mice given 3-MA or MG132. The experiment is classed as in vivo. To be noted: KK-Ay/TRB3-KD mice, B16-F10 s.c. or i.v.; 3-MA 30 mg kg^−1 per day or MG132 2.5 mg kg^−1 twice a week i.p.; n=6 per group; Supplementary Fig. 4g,h. As for the experimental part: Seven-week-old KK-Ay mice were i.p. injected with TRB3-shRNA lentiviral particles (2 × 10^5 plaque-forming unit) to generate KK-Ay/TRB3-KD mice; over 75% depletion of TRB3 in target tissues (lungs and liver) was considered as effectively knocking down. 3-MA (30 mg kg^−1 per day) or MG132 (2.5 mg kg^−1 twice a week) was i.p. injected to the KK-Ay/TRB3-KD mice, from day 9 after tumour inoculation to the time of being killed. The evaluation of tumour growth and metastasis was described in the section of ‘Mouse Models for Tumour Growth and Metastasis'.
control-shRNA. Data are the summarized fold changes of proteins (control-
shRNA/TRB3-shRNA1) (upper) and representative spots showing
differentially expressed EGFR (framed) (lower). Data are representative of 2
independent assays. (e) The xenograft tumours express higher pro-
metastasis and pro-EMT factors in KK-Ay mice than that in C57 BL/6 mice.
Data are representative immunoblots of 4 independent assays. (f) The liver
and lung tissues express higher pro-metastasis and pro-EMT factors in
DMBA-treated KK-Ay mice than that in DMBA-treated C57 BL/6. Data are
representative immunoblots of 4 independent assays. (g,h) Suppressing
autophagy or UPS reverses the antitumour effect of TRB3 knockdown. TRB3
knockdown KK-Ay mice were s.c. injected with B16-F10 cells ([…]) or i.v. […]
Statistical significance was determined by Student’s t-test; *P<0.05, **P<0.01,

Setting [2] is: SPR, BIAcore T200, peptide passed over TRB3 immobilized on CM5 sensor chip, alanine scan of A2, Fig. 6f, read-out: KD.

Read-outs that look alike come from different tables or passages of the source. Where a SMILES comes first, the peptide text is derived from it. Where no end group is shown, it is not given here. The star is where a group is joined. Cbz = O=C(OCc1ccccc1)*

One may read the Kd as the free concentration of one partner at which half of the binding sites on the other are occupied at equilibrium, for simple one-to-one binding. For GGWLTALLQTK [M6], the Kd on TRB3 (setting [2]) amounted to 0.142 nM.

In the case of GGWLARLLQTK [M5], at TRB3 (setting [2]), the Kd was 110 nM.

As for GGWLTRLLQAK [M10], on TRB3, the Kd worked out at 381 nM.

In turn, GGWATRLLQTK [M4] came in with a Kd on TRB3 of 4320 nM.

Take GGALTRLLQTK [M3]: on TRB3, the Kd turned out to be 3590 nM.

On to insulin, for which the “half-life of p62 degradation” value in the experiment on p62 was found to be 24 h.

Turning to `CC(C)C[C@@H](C=O)NC(=O)[C@H](CC(C)C)NC(=O)[C@H](CC(C)C)NC(=O)OCc1ccccc1` [MG132] (Cbz-Leu-Leu-Leu-aldehyde), in experiment [1], the “turnover of COX2, Twist and MMP-2” value is “inhibited”. Moreover, the “effect on antitumour actions of TRB3 deficiency” value in the experiment with B16-F10 cells was “overturn the antitumour actions of TRB3 deficiency”.

Regarding GGWLTRALQTK [M7], the Kd at TRB3 (setting [2]) was found to be 11800 nM.

In the case of `CO/C1=C\C(C)=C\[C@@H](C)[C@@H](O)[C@@H](C)C/C(C)=C/C=C/[C@H](OC)[C@@H]([C@@H](C)[C@@H](O)[C@H](C)[C@@]2(O)C[C@@H](O)[C@H](C)[C@@H](C(C)C)O2)OC1=O` [bafilomycin], in experiment [1], the “turnover of COX2, Twist and MMP-2” value is reported as “not inhibited”; the “turnover of LC3, EGFR, c-Myc, MMP1 and p62” value is reported as “inhibited”.

As for GGWLTRLLQTA [M11], on TRB3, the affinity, expressed as Kd, was 73.1 nM.

At TRB3, AGWLTRLLQTK [M1] had a Kd of 1640 nM.

At TRB3, GAWLTRLLQTK [M2] showed a Kd of 402 nM.

For the molecule `Cn1cnc(N)c2ncnc1-2` [3-MA], the “effect on antitumour actions of TRB3 deficiency” value with B16-F10 cells is on record as “overturn the antitumour actions of TRB3 deficiency”.

As to GGWLTRLLATK [M9], on TRB3, the Kd was 35600 nM.

As to IGF-1, in the experiment with p62, the “half-life of p62 degradation” value turned out to be 24 h.

These data come from article PMC4557121, “TRB3 links insulin/IGF to tumour promotion by interacting with p62 and impeding autophagic/proteasomal degradations” (Nature Communications, 2015).
